Experimental data as given in US5510375A, “Coumarin derivatives as protease inhibitors and antiviral agents” (Warner-Lambert Company, priority 1993, dated 1996).
Where two headings read alike, the source gives them in different places.

Experiments:
[1] = test system: HIV-1iiib; test: Anti-HIV-1 activity in H9 cells (acute infection, reverse transcriptase assay); assay type: cell-based; conditions: Human immunodeficiency virus 1, acute HIV-1iiib infection, multiplicity of infection 0.01, 4 and 7 days post infection, 0.2% DMSO, read-out: Therapeutic Concentration for 50% Protection of Cells
Protocol: Using the general methods of Pauwels et al., (J. Virol. Methods, 16: 171-185 (1987) and Mann et al. (AIDS Research and Human Retroviruses, 253-255 (1989)) anti-viral assays of acute HIV-1 infection were performed in the H9 cell line. Cultures were batch infected in 1 ml of RPM1 1640 media/10% fetal calf serum containing 10^7 cells and 10^5 infectious doses of HIV-1iiib for an effective multiplicity of infection of 0.01. After 2 hours of viral absorption, cells were washed once and plated in 96-well microtiter plates at a density of 10^4 cells per well. Test compounds were added to produce the desired concentration of drug and 0.2% DMSO in a final volume of 200 μl. Uninfected parallel cultures were maintained for XTT cytotoxicity assay at 7 days post infection. Cultures were tested for viral replication by reverse transcriptase assay at 4 and 7 days post infection.

[2] = biological target: T1, HIV-1 Protease (Human immunodeficiency virus type 1 group M subtype B, UniProt P04585); test: HIV Protease Inhibition (hydrolysis of undecapeptide Substrate III, HPLC); assay type: biochemical
T1 construct: purchased Bachem Bioscience Inc
Protocol: 1.0 mM dithiothreitol (DTT) was prepared fresh daily in 0.1% polyethylene glycol (mw 8000) 80 mM NaOAc, 160 mM NaCl, 1.0 mM EDTA, and brought to pH 4.7 with HCl.
The enzyme is obtained from Bachem Bioscience Inc. The undiluted enzyme is thawed from -80° C. and diluted 50-fold with DTT buffer. The solution is always kept at 0° C. on ice water and used in the experiment within 20 minutes after thawing.
Substrate III from Bachem Bioscience Inc. is the undecapeptide H-His-Lys-Ala-Arg-Val-Leu-p-Nitrophenylalanine-Glu-Ala-Norleucine-Ser-NH2 (>97% purity). A 200 μM stock solution in DTT buffer is prepared and stored on ice. Substrate solution is prepared fresh daily.
10 mM inhibitor (I) in dimethyl sulfoxide (DMSO) is diluted to 200 μM with DTT buffer. From the 200 μM stock solution is made a 10 μM stock solution with 2% DMSO in DTT buffer. The two inhibitor solutions are used to make final (I)=100, 50, 20, 10, 5, 0.5 and 0 μM with 2% DMSO in DTT buffer in each reaction well (total inhibitor volume of 50 μl).
To each reaction well is added 20 μl of substrate (final concentration of 40 μM), 50 μl of inhibitor (at a concentration such that final dilution will produce the test concentration) and 20 μl of DTT buffer. The reaction plate (96 wells) is incubated at 37° C. for at least 5 minutes.
10 μl of the diluted protease is added to the reaction well while the reaction plate is shaking. Once shaken for 10 seconds, the plate is returned to the heating block at 37° C. (Final reaction volume=100 μl)
The reaction is incubated for 5 minutes at 37° C. The reaction is stopped by placing the reaction plate on the shaker and adding 20 μl of 10% trifluoroacetic acid (TFA) and shaking for 10 seconds. The amount of proteolysis is then determined by separation of noncleaved substrate and two cleaved products with reverse-phase HPLC, while measuring absorbance at 220 nm to determine the relative peak areas of the three components. The relative peak areas are used to calculate % conversion to product as a function of inhibitor concentration. The data is plotted as % Control (the ratio of % conversion in the presence and absence of inhibitor×100) versus inhibitor concentration and fit with the equation Y=100/1+(X/IC50)^A, where IC50 is the inhibitor concentration at 50% inhibition and A is the slope of the inhibition curve.

[3] = test system: HIV; conditions: R. Nagorny et al., AIDS, 7: 129-130 (1993); cited from earlier work
[4] = pH 4.7, 37° C., 40 μM substrate, 2% DMSO, 5 minutes, read-out: 50% Inhibition Concentration

COc1ccccc1CCCCc1c(O)c2ccccc2oc1=O [Example 13, 4-Hydroxy-3-4-(2-methoxyphenyl)butyl!-2H-1-benzopyran-2-one]
EC50 [1]: 13 µM | IC50 [2, 4]: 1.7 µM

COc1ccc2c(O)c(CCCCc3ccccc3OC)c(=O)oc2c1 [Example 22, 4-Hydroxy-7-methoxy-3-4-(2-methoxyphenyl)butyl!-2H-1-benzopyran-2-one]
IC50 [2]: 1.4 µM

O=c1oc2ccccc2c(O)c1CCCOc1cccc(CO)c1 [Example 10, 4-Hydroxy-3-3-(3-hydroxymethylphenoxy)propyl!-2H-1-benzopyran-2-one]
IC50 [2, 4]: 1.2 µM

COc1ccccc1CCCCc1c(O)c2cccc(C)c2oc1=O [Example 23, 4-Hydroxy-3-4-(2-methoxyphenyl)butyl!-8-methyl-2H-1-benzopyran-2-one]
IC50 [2, 4]: 5 µM

COc1ccccc1CCCCc1c(O)c2ccc(O)cc2oc1=O [Example 43, 4,7-Dihydroxy-3-4-(2-methoxyphenyl)butyl!-2H-1-benzopyran-2-one]
IC50 [2, 4]: 0.5 µM

O=C(O)c1cccc(OCCCc2c(O)c3ccccc3oc2=O)c1 [Example 9, 3-3-(4-Hydroxy-2-oxo-2H-1-benzopyran-3-yl)propoxy!benzoic acid]
IC50 [2, 4]: 5 µM

COc1ccc(OCCCc2c(O)c3ccccc3oc2=O)cc1 [Example 4, 4-Hydroxy-3-3-(4-methoxyphenoxy)propyl!-2H-1-bensopyran-2-one]
IC50 [2, 4]: 1.9 µM

O=c1oc2ccccc2c(O)c1CCCCc1ccccc1O [Example 14, 4-Hydroxy-3-4-(2-hydroxyphenyl)butyl!-2H-1-benzopyran-2-one]
IC50 [2, 4]: 2.8 µM

N#Cc1cccc(OCCCc2c(O)c3ccccc3oc2=O)c1 [Example 37, 3-3-(3-Cyanophenoxy)propyl!-4-hydroxy-2H-1-benzopyran-2-one]
IC50 [2]: 0.6 µM

CCOC(=O)c1cccc(OCCCc2c(O)c3ccccc3oc2=O)c1 [Example 8, Ethyl 3-3-(4-hydroxy-2-oxo-2H-1-benzopyran-3-yl)propoxy!benzoate]
EC50 [1]: 58 µM | IC50 ([2]; read-out: 50% Inhibition Concentration): 0.5 µM

CC(=O)CC(c1ccccc1)c1c(O)c2ccccc2oc1=O (stereo not drawn) [Warfarin, 3-(α-acetonylbenzyl)4-hydroxycoumarin]
inhibiting cell-free and cell-mediated HIV infection [3]: inhibiting cell-free and cell-mediated HIV infection

O=c1oc2ccccc2c(O)c1C(SC1CCCCC1)c1ccccc1 (stereo not drawn) [Example 42, 3-(Cyclohexylthio)phenylmethyl!-4-hydroxy-2H-1-benzopyran-2-one]
IC50 [2]: 0.4 µM

O=c1oc2ccccc2c(O)c1CCCOc1cccc(Cl)c1 [Example 7, 3-3-(3-Chlorophenoxy)propyl!-4-hydroxy-2H-1-benzopyran-2-one]
IC50 [2]: 1.3 µM
